# According to patent US9340590B2 (priority 2011, dated 2016):
# Like-named read-outs stand apart in the source and are kept apart here. Positions of bridges follow the written chain, without caps; N, C: chain ends. Residues, ends and D or L forms follow the SMILES beside them.
# Tests used:
# Test in all cases: cell-based
# hNav1.3 = hNav1.3 (Homo sapiens, UniProt Q9NY46); settings: IonWorks Quattro; clamped to −110 mV, depolarized to −10 mV, 5 min after compound; n=2; read-out: IWQ Use Nav1.3
# hNav1.5 = hNav1.5 (Homo sapiens, UniProt Q14524)
# hNav1.7 = hNav1.7 (Homo sapiens, UniProt Q15858); type: cell-based
# [1] = IonWorks Quattro, clamped to −110 mV, depolarized to −10 mV, 5 min after compound, n=2, read-out: IWQ Use Nav1.5
# [2] = IonWorks Quattro, clamped to −110 mV, depolarized to −10 mV, 5 min after compound, n=2, read-out: IWQ Use Nav1.7
# Sequence of hNav1.7 (Q15858 whole entry, looked up): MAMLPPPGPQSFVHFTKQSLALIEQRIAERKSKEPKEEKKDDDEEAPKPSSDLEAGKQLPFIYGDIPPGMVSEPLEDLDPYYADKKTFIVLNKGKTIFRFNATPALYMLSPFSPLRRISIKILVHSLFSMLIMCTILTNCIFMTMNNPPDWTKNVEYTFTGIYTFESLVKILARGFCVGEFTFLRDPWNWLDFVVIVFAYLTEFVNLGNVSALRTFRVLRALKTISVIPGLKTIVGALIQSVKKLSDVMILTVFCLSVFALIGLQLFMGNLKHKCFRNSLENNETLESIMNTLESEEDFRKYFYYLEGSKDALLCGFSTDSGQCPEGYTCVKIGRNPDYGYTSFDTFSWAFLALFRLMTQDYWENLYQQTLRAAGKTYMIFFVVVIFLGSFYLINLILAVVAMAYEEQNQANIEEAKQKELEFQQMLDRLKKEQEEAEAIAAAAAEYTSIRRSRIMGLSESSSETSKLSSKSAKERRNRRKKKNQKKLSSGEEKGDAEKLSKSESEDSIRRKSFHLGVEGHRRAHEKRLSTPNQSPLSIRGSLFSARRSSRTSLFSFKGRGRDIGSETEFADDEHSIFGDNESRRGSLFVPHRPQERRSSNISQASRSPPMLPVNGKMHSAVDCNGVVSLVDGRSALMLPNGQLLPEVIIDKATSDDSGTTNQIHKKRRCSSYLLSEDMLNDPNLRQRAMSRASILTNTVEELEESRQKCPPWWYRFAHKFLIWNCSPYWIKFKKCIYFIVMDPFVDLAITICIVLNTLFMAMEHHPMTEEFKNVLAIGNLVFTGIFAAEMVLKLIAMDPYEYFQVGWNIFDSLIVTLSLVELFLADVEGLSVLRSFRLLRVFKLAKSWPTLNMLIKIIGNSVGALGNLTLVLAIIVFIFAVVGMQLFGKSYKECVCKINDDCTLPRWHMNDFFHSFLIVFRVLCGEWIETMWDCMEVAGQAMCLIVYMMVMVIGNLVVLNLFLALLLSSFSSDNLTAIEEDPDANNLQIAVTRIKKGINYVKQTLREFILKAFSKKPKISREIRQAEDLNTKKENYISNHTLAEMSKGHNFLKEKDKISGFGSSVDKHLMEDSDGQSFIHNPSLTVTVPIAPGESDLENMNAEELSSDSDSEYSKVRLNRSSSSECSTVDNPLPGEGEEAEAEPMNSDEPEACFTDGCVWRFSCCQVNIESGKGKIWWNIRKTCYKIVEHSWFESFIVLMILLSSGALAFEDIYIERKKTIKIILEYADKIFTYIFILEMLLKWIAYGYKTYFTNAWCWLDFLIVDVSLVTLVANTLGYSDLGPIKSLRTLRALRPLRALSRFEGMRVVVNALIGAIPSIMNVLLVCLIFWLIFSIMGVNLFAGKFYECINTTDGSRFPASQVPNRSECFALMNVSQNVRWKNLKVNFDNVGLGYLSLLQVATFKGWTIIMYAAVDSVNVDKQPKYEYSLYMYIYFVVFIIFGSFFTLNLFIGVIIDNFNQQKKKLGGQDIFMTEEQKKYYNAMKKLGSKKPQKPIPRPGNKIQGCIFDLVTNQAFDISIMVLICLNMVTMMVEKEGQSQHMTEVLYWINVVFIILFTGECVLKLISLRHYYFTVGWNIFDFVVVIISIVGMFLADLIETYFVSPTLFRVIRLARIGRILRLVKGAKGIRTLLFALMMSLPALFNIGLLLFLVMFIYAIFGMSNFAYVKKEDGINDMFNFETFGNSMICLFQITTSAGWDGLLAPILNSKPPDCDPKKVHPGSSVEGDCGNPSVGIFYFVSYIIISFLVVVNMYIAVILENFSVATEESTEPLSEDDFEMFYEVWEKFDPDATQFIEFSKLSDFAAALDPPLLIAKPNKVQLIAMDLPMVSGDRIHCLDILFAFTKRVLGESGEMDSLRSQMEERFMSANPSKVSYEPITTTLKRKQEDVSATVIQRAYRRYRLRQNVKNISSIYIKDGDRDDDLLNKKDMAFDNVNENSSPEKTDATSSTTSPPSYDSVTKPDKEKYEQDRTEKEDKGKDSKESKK
# Sequence of hNav1.5 (Q14524 whole entry, looked up): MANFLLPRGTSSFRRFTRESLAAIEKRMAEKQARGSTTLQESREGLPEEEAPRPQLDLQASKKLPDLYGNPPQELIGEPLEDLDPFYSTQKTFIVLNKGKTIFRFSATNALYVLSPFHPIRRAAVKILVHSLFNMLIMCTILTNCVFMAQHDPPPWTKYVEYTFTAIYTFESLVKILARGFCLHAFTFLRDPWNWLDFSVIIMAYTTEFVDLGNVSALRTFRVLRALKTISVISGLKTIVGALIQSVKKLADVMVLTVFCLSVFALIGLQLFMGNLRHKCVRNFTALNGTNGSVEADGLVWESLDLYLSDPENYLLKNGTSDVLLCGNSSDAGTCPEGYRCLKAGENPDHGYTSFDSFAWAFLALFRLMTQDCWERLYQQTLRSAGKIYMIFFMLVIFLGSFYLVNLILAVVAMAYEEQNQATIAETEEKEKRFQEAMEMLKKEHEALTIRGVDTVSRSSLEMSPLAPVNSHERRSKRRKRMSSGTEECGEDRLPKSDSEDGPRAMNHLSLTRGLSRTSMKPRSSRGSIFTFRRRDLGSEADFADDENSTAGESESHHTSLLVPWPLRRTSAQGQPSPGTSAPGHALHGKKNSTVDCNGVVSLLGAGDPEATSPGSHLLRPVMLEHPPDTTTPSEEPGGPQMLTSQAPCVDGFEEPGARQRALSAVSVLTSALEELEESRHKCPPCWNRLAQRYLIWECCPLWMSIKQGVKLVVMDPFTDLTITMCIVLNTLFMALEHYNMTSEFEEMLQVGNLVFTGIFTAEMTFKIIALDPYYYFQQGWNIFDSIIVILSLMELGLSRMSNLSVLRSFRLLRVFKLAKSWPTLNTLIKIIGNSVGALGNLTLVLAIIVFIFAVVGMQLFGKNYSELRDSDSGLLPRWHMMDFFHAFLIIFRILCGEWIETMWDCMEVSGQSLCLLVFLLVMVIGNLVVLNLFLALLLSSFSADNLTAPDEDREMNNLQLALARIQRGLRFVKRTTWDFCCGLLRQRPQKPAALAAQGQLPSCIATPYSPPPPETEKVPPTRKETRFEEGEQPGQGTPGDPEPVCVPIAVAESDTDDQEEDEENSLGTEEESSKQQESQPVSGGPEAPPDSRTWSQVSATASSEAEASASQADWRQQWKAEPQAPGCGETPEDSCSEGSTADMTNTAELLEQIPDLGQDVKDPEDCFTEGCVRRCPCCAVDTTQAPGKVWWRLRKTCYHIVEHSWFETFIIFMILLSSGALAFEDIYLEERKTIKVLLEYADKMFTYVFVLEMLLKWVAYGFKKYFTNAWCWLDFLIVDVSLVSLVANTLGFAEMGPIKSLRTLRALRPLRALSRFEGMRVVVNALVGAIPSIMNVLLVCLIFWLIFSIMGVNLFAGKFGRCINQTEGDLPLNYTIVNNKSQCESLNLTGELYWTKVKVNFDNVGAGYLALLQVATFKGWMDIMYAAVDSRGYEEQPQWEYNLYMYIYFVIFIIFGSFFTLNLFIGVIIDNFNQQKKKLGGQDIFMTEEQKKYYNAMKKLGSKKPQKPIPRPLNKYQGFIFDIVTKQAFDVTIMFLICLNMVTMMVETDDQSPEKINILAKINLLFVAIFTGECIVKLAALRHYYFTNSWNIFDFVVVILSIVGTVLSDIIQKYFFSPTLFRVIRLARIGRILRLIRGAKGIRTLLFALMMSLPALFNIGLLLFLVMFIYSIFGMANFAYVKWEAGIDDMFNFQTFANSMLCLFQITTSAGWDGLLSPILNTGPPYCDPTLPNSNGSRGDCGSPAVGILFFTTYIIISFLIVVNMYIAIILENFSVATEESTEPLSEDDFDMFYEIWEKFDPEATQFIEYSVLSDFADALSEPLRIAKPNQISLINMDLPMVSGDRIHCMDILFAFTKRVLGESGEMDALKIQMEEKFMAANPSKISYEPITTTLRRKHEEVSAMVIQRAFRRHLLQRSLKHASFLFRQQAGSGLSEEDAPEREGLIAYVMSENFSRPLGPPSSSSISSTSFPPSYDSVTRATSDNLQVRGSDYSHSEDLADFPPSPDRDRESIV
Compound,IC50 (hNav1.3),IC50 (hNav1.5; IWQ Use Nav1.5),IC50 (hNav1.7),IC50 (hNav1.5; [1]),IC50 (hNav1.7; [2])
CC[C@H](C)[C@@H]1NC(=O)[C@@H]2CSSC[C@@H]3NC(=O)[C@H](C(C)C)NC(=O)[C@H](CC(C)C)NC(=O)[C@H](CC(N)=O)NC(=O)[C@@H]4CCCN4C(=O)[C@H](CCCNC(=N)N)NC(=O)[C@H](CSSC[C@H](NC(=O)[C@H](CC(=O)O)NC(=O)[C@@H](N)CCC(=O)O)C(=O)N[C@@H](CC(C)C)C(=O)NCC(=O)N[C@@H](Cc4ccccc4)C(=O)N[C@@H](CCSC)C(=O)N[C@@H](CCCNC(=N)N)C(=O)N[C@@H](CCCCN)C(=O)N2)NC(=O)[C@H](CSSC[C@@H](C(=O)N[C@@H](CCCCN)C(=O)N[C@@H](Cc2ccc(O)cc2)C(=O)N[C@H](C(=O)N[C@@H](Cc2ccccc2)C(N)=O)C(C)C)NC(=O)[C@H](Cc2c[nH]c4ccccc24)NC(=O)[C@H](CCCCN)NC(=O)[C@H](Cc2cnc[nH]2)NC(=O)[C@H]([C@@H](C)O)NC(=O)[C@H](CCCNC(=N)N)NC(=O)[C@H](CO)NC3=O)NC(=O)[C@H](CCCCN)NC(=O)[C@H](CC(=O)O)NC(=O)[C@H](CC(N)=O)NC(=O)[C@H](CC(=O)O)NC(=O)[C@@H]2CCCN2C1=O [SEQ ID NO: 17],190 nM,12800 nM,260 nM,,
"CC[C@H](C)[C@@H]1NC(=O)[C@@H]2CSSC[C@@H]3NC(=O)[C@H](C(C)C)NC(=O)[C@H](CC(C)C)NC(=O)[C@H](CC(N)=O)NC(=O)[C@@H]4CCCN4C(=O)[C@H](CCCNC(=N)N)NC(=O)[C@H](CSSC[C@H](NC(=O)[C@@H](N)CC(=O)O)C(=O)N[C@@H](CC(C)C)C(=O)NCC(=O)N[C@@H](Cc4ccccc4)C(=O)N[C@@H](C)C(=O)N[C@@H](CCCNC(=N)N)C(=O)N[C@@H](CCCCN)C(=O)N2)NC(=O)[C@H](CSSC[C@@H](C(=O)N[C@@H](CCCCN)C(=O)N[C@@H](Cc2ccc(O)cc2)C(=O)N[C@H](C(=O)N[C@@H](Cc2ccccc2)C(N)=O)C(C)C)NC(=O)[C@H](Cc2c[nH]c4ccccc24)NC(=O)[C@H](CCCCN)NC(=O)[C@H](Cc2cnc[nH]2)NC(=O)[C@H]([C@@H](C)O)NC(=O)[C@H](CCCNC(=N)N)NC(=O)[C@H](CO)NC3=O)NC(=O)[C@H](CCCCN)NC(=O)[C@H](CC(=O)O)NC(=O)[C@H](CC(N)=O)NC(=O)[C@H](CC(=O)O)NC(=O)[C@@H]2CCCN2C1=O [SEQ ID NO: 23] (H-DCLGFARKCIPDNDKCCRPNLVCSRTHKWCKYVF-NH2; disulfide 2-17, 9-23, 16-30)",210 nM,,,17400 nM,510 nM
CC[C@H](C)[C@@H]1NC(=O)[C@@H]2CSSC[C@@H]3NC(=O)[C@H](C(C)C)NC(=O)[C@H](CC(C)C)NC(=O)[C@H](CC(N)=O)NC(=O)[C@@H]4CCCN4C(=O)[C@H](CCCNC(=N)N)NC(=O)[C@H](CSSC[C@H](NC(=O)[C@H](CC(=O)O)NC(=O)[C@@H](N)CCCCN)C(=O)N[C@@H](CC(C)C)C(=O)NCC(=O)N[C@@H](Cc4ccccc4)C(=O)N[C@@H](CCSC)C(=O)N[C@@H](CCCNC(=N)N)C(=O)N[C@@H](CCCCN)C(=O)N2)NC(=O)[C@H](CSSC[C@@H](C(=O)N[C@@H](CCCCN)C(=O)N[C@@H](Cc2ccc(O)cc2)C(=O)N[C@H](C(=O)N[C@@H](Cc2ccccc2)C(N)=O)C(C)C)NC(=O)[C@H](Cc2c[nH]c4ccccc24)NC(=O)[C@H](CCCCN)NC(=O)[C@H](Cc2cnc[nH]2)NC(=O)[C@H]([C@@H](C)O)NC(=O)[C@H](CCCNC(=N)N)NC(=O)[C@H](CO)NC3=O)NC(=O)[C@H](CCCCN)NC(=O)[C@H](CC(=O)O)NC(=O)[C@H](CC(N)=O)NC(=O)[C@H](CC(=O)O)NC(=O)[C@@H]2CCCN2C1=O [SEQ ID NO: 36],100 nM,,,8350 nM,110 nM
"CC[C@H](C)[C@@H]1NC(=O)[C@@H]2CSSC[C@@H]3NC(=O)[C@H](C(C)C)NC(=O)[C@H](CC(C)C)NC(=O)[C@H](CC(N)=O)NC(=O)[C@@H]4CCCN4C(=O)[C@H](CCCNC(=N)N)NC(=O)[C@H](CSSC[C@H](NC(=O)[C@@H](N)CC(=O)O)C(=O)N[C@@H](CCCCN)C(=O)NCC(=O)N[C@@H](Cc4ccccc4)C(=O)N[C@@H](CCSC)C(=O)N[C@@H](CCCNC(=N)N)C(=O)N[C@@H](CCCCN)C(=O)N2)NC(=O)[C@H](CSSC[C@@H](C(=O)N[C@@H](CCCCN)C(=O)N[C@@H](Cc2ccc(O)cc2)C(=O)N[C@H](C(=O)N[C@@H](Cc2ccccc2)C(N)=O)C(C)C)NC(=O)[C@H](Cc2c[nH]c4ccccc24)NC(=O)[C@H](CCCCN)NC(=O)[C@H](Cc2cnc[nH]2)NC(=O)[C@H]([C@@H](C)O)NC(=O)[C@H](CCCNC(=N)N)NC(=O)[C@H](CO)NC3=O)NC(=O)[C@H](CCCCN)NC(=O)[C@H](CC(=O)O)NC(=O)[C@H](CC(N)=O)NC(=O)[C@H](CC(=O)O)NC(=O)[C@@H]2CCCN2C1=O [SEQ ID NO: 38] (H-DCKGFMRKCIPDNDKCCRPNLVCSRTHKWCKYVF-NH2; disulfide 2-17, 9-23, 16-30)",60 nM,,,6950 nM,80 nM
CC[C@H](C)[C@@H]1NC(=O)[C@@H]2CSSC[C@@H]3NC(=O)[C@H](C(C)C)NC(=O)[C@H](CC(C)C)NC(=O)[C@H](CC(N)=O)NC(=O)[C@@H]4CCCN4C(=O)[C@H](CCCNC(=N)N)NC(=O)[C@H](CSSC[C@H](NC(=O)[C@H](CC(=O)O)NC(=O)[C@@H](N)CCCNC(=N)N)C(=O)N[C@@H](CC(C)C)C(=O)NCC(=O)N[C@@H](Cc4ccccc4)C(=O)N[C@@H](CCSC)C(=O)N[C@@H](CCCNC(=N)N)C(=O)N[C@@H](CCCCN)C(=O)N2)NC(=O)[C@H](CSSC[C@@H](C(=O)N[C@@H](CCCCN)C(=O)N[C@@H](Cc2ccc(O)cc2)C(=O)N[C@H](C(=O)N[C@@H](Cc2ccccc2)C(N)=O)C(C)C)NC(=O)[C@H](Cc2c[nH]c4ccccc24)NC(=O)[C@H](CCCCN)NC(=O)[C@H](Cc2c[nH]cn2)NC(=O)[C@H]([C@@H](C)O)NC(=O)[C@H](CCCNC(=N)N)NC(=O)[C@H](CO)NC3=O)NC(=O)[C@H](CCCCN)NC(=O)[C@H](CC(=O)O)NC(=O)[C@H](CC(N)=O)NC(=O)[C@H](CC(=O)O)NC(=O)[C@@H]2CCCN2C1=O [SEQ ID NO: 61],80 nM,,,15100 nM,170 nM
"CC[C@H](C)[C@@H]1NC(=O)[C@@H]2CSSC[C@@H]3NC(=O)[C@H](C(C)C)NC(=O)[C@H](CC(C)C)NC(=O)[C@H](CC(N)=O)NC(=O)[C@@H]4CCCN4C(=O)[C@H](CCCNC(=N)N)NC(=O)[C@H](CSSC[C@H](NC(=O)[C@@H](N)CC(=O)O)C(=O)N[C@@H](CC(C)C)C(=O)NCC(=O)N[C@@H](Cc4ccccc4)C(=O)N[C@@H](CCCNC(=N)N)C(=O)N[C@@H](CCCNC(=N)N)C(=O)N[C@@H](CCCCN)C(=O)N2)NC(=O)[C@H](CSSC[C@@H](C(=O)N[C@@H](CCCCN)C(=O)N[C@@H](Cc2ccc(O)cc2)C(=O)N[C@H](C(=O)N[C@@H](Cc2ccccc2)C(N)=O)C(C)C)NC(=O)[C@H](Cc2c[nH]c4ccccc24)NC(=O)[C@H](CCCCN)NC(=O)[C@H](Cc2cnc[nH]2)NC(=O)[C@H]([C@@H](C)O)NC(=O)[C@H](CCCNC(=N)N)NC(=O)[C@H](CO)NC3=O)NC(=O)[C@H](CCCCN)NC(=O)[C@H](CC(=O)O)NC(=O)[C@H](CC(N)=O)NC(=O)[C@H](CC(=O)O)NC(=O)[C@@H]2CCCN2C1=O [SEQ ID NO: 64] (H-DCLGFRRKCIPDNDKCCRPNLVCSRTHKWCKYVF-NH2; disulfide 2-17, 9-23, 16-30)",5900 nM,17600 nM,,,6980 nM
